# Assay results as given in ChEMBL document CHEMBL1143043, “Monitoring aminoglycoside-induced conformational changes in 16S rRNA through acrylamide quenching” (Bioorg Med Chem, 2007).
# Experiments:
# [1] = Affinity to hairpin A-site 16S rRNA by Electrospray ionization mass spectrometry
# [2] = Affinity to 2-aminopurine labeled hairpin A-site 16S rRNA by Electrospray ionization mass spectrometry
compound,measurement,setting,value
NC[C@@H]1O[C@H](O[C@H]2[C@@H](O)[C@H](O[C@@H]3[C@@H](O)[C@H](N)C[C@H](N)[C@H]3O[C@H]3O[C@H](CO)[C@@H](O)[C@H](O)[C@H]3N)O[C@@H]2CO)[C@H](N)[C@@H](O)[C@@H]1O [PAROMOMYCIN],Kd,[1],370 nM
same,Kd,[2],980 nM
